Here are results for two compounds from patent US20240197628A1, “INHALABLE DRY POWDER FORMULATIONS COMPRISING ANGIOGENESIS INHIBITORS” (Lonza Bend Inc., priority 2020, published 2024).

For series [1], the system named is NSCLC cell line Calu-3. As to the kind of experiment: Orthotopic nude rat model for lung cancer, in vivo efficacy study. Particulars: each with cisplatin IP 3 mg/kg, 1.5 mg/kg deposited INH vs 15 mg/kg IP, 8 weeks. The procedure:
NSCLC cell line Calu-3 was instilled into the lungs of X-irradiated rats by an intratracheal route, targeting 1.5×10^7 cells per installation. For the first four weeks of the study, no treatment was administered, allowing growth of the tumor cells. Inhaled bevacizumab SDD was evaluated as a primary treatment as well as a maintenance therapy.
Cisplatin was administered by IP at 3 mg/kg. Powder was aerosolized using a rotating brush generator and delivered to the rats passively through nasal inhalation. […] Groups 1-4 were evaluated for primary efficacy after 8 weeks with lung weight as the end point. Groups 5-7 were evaluated for maintenance efficacy after 12 weeks with lung weight and survival as the end point.

For series [2] the following is noted: solution prepared 18 hours before spray drying; cited from earlier work.

Consider Bevacizumab [bevacizumab control], for which the “tumor burden, inhaled vs IP bevacizumab” value is “indistinguishable” in series [1] (listed as IP bevacizumab) and “equal” in series [1] (listed as bevacizumab delivered via IP injection). For the compound `N.N.[Cl][Pt][Cl]` [cisplatin], the “stability in aqueous solution” value in series [2] was “converts to transplatin”.
